The test system of one assay is HL-60 cells. Put plainly: HL-60 differentiation (nitro blue tetrazolium reduction). In kind it is cell-based, human. The following applies: four days, read-out: EC50, HL-60 cell differentiation. As for the experimental part: The study drugs were dissolved in ethanol and the concentrations determined using UV spectrophotometry. Serial dilutions were prepared so that a range of drug concentrations could be tested without changing the final concentration of ethanol (≦0.2%) present in the cell cultures.
Human promyelocytic leukemia (HL60) cells were grown in RPMI-1640 medium containing 10% fetal bovine serum. The cells were incubated at 37° C. in the presence of 5% CO2.
HL60 cells were plated at 1.2×10^5 cells/ml. Eighteen hours after plating, cells in duplicate were treated with drug. Four days later, the cells were harvested and a nitro blue tetrazolium reduction assay was performed (Collins et al., 1979; J. Exp. Med. 149:969-974). The percentage of differentiated cells was determined by counting a total of 200 cells and recording the number that contained intracellular black-blue formazan deposits. Verification of differentiation to monocytic cells was determined by measuring phagocytic activity (data not shown).

Assay [1] has as its system 24-hydroxylase (24Ohase) gene promoter. Put plainly: In vitro transcription assay, luciferase reporter in ROS 17/2.8 (bone) cells. In kind it is cell-based. The note with it: ROS 17/2.8 cells, sixteen hours after dosing; read-out: EC50, transcriptional activity in bone cells (24-hydroxylase gene). As for the experimental part:
Transcription activity was measured in ROS 17/2.8 (bone) cells that were stably transfected with a 24-hydroxylase (24Ohase) gene promoter upstream of a luciferase reporter gene (Arbour et al., 1998). Cells were given a range of doses. Sixteen hours after dosing the cells were harvested and luciferase activities were measured using a luminometer.
RLU=relative luciferase units.
(In general: In a reporter assay the amount or activity of a reporter protein is the signal.)

For assay [2], the system named is vitamin D-deficient rats. Put plainly: Bone calcium mobilization (serum calcium). In kind it is in vivo, rat. The note with it: rats on low calcium diet (0.02%); for bone calcium mobilization (serum calcium levels): all dose levels tested, four ip doses. On the procedure: (§1) Male, weanling Sprague-Dawley rats were placed on Diet 11 (0.47% Ca) diet+AEK oil for one week followed by Diet 11 (0.02% Ca)+AEK oil for 3 weeks. The rats were then switched to a diet containing 0.47% Ca for one week followed by two weeks on a diet containing 0.02% Ca. Dose administration began during the last week on 0.02% calcium diet. Four consecutive ip doses were given approximately 24 hours apart. Twenty-four hours after the last dose, blood was collected from the severed neck and the concentration of serum calcium determined as a measure of bone calcium mobilization. The first 10 cm of the intestine was also collected for intestinal calcium transport analysis using the everted gut sac method.

Assay [3] deals with vitamin D-deficient rats. Put plainly: Intestinal calcium transport (everted gut sac method). In kind it is in vivo, rat. On the procedure: as §1
Assay [4] deals with T1, full-length recombinant rat vitamin D receptor (Rattus norvegicus, UniProt P13053).
T1 construct: Full-length recombinant rat receptor was expressed in E. coli; histidine tag (C); made in house; host or cells: E. coli BL21 (DE3) Codon Plus RIL
T1 sequence (P13053 1-423): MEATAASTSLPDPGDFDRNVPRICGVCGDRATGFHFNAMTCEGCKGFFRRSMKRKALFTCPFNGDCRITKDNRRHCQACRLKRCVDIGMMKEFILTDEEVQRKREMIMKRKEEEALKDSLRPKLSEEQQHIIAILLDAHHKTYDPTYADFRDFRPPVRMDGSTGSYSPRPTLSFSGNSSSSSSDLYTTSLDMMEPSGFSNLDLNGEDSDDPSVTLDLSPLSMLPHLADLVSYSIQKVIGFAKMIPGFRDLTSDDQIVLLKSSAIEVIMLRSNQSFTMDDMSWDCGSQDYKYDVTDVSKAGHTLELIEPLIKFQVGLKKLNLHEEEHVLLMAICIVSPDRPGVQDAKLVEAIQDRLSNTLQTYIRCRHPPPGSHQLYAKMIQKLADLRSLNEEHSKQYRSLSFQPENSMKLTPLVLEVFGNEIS
Description: Vitamin D receptor binding, competition with [3H]-1,25(OH)2D3. As for the experimental part: Full-length recombinant rat receptor was expressed in E. coli BL21 (DE3) Codon Plus RIL cells and purified to homogeneity using two different column chromatography systems. The first system was a nickel affinity resin that utilizes the C-terminal histidine tag on this protein. The protein that was eluted from this resin was further purified using ion exchange chromatography (S-Sepharose Fast Flow). Aliquots of the purified protein were quick frozen in liquid nitrogen and stored at −80° C. until use. For use in binding assays, the protein was diluted in TEDK50 (50 mM Tris, 1.5 mM EDTA, pH7.4, 5 mM DTT, 150 mM KCl) with 0.1% Chaps detergent. The receptor protein and ligand concentration were optimized such that no more than 20% of the added radiolabeled ligand was bound to the receptor.
Radiolabeled and unlabeled ligands were added to 100 mcl of the diluted protein at a final ethanol concentration of ≦10%, mixed and incubated overnight on ice to reach binding equilibrium. The following day, 100 mcl of hydroxylapatite slurry (50%) was added to each tube and mixed at 10-minute intervals for 30 minutes. The hydroxylapaptite was collected by centrifugation and then washed three times with Tris-EDTA buffer (50 mM Tris, 1.5 mM EDTA, pH 7.4) containing 0.5% Titron X-100. […] Total binding was determined from the tubes containing only radiolabeled ligand.

Setting [5] is: 260 pmol/day ip for 4 consecutive days, everted gut sac.

SMILES strings stand for the structures. pEC50, pKi: −log10 of the molar value. Like-named read-outs stand apart in the source and are kept apart here.

Broadly, the pEC50 is the negative decadic logarithm of the EC50, by convention in mol/L. A word on the pKi: it is the Ki on a negative log10 scale, so that one unit is a factor of ten.

As to `C=C1/C(=C\C=C2/CCC[C@]3(C)[C@@H]([C@H](C)CCCC(C)(C)O)CC[C@@H]23)C[C@@H](O)C[C@@H]1O` [1,25(OH)2D3, 1α,25-dihydroxyvitamin D3, reference compound], the pEC50 was 8.40 in the assay on HL-60 cells and 9.70 in assay [1]. For the same molecule, in the assay with vitamin D-deficient rats [2], the “bone calcium mobilization (serum calcium levels)” value was “increased serum calcium levels at all dosages”. Besides, the intestinal calcium transport result with vitamin D-deficient rats [3] (setting [5]) is recorded as “promotes a significant increase”.

Regarding `C=C1[C@H](O)CC(=C/C=C2\CCC[C@]3(C)[C@@H](C(C)(C)CC)CC[C@@H]23)C[C@H]1O` [20DCM, 2-methylene-20-methyl-1α-hydroxy-19,24,25,26,27-pentanor-vitamin D3], in assay [4] (compared to 1,25(OH)2D3), the “affinity for the vitamin D receptor relative to 1,25(OH)2D3” value was “approximately one-half log less affinity”. Besides, the pKi in assay [4] (full-length recombinant rat vitamin D receptor, read-out: Ki, competition with [3H]-1,25(OH)2D3 for binding to VDR) was 10.10. In addition, the pEC50 in the assay on HL-60 cells (Homo sapiens, 96 h) was 8.00; in assay [1], 8.40. Further, the figures for the bone calcium mobilization entry with vitamin D-deficient rats [2] (260 pmol/day ip for 4 consecutive days) and in the assay with vitamin D-deficient rats [2] (7020 pmol/day ip for 4 consecutive days) were “did not result in mobilization of bone calcium” and “without effect”, respectively. Besides, the “bone calcium mobilization (serum calcium levels)” value in the assay on vitamin D-deficient rats [2] is reported as “does not have any measurable activity”. Moreover, the intestinal calcium transport entry is reported as “promotes intestinal calcium transport only slightly” with vitamin D-deficient rats [3] (setting [5]); “no significant intestinal calcium transport activity” in the assay with vitamin D-deficient rats [3] (7020 pmol/day ip for 4 consecutive days, everted gut sac); “very little activity” with vitamin D-deficient rats [3] (four consecutive ip doses, doses tested, compared to 1,25(OH)2D3).

For the origin of these results see patent publication US7943601B2, “2-methylene-20-methyl-19,24,25,26,27-pentanor-vitamin D analogs” (Wisconsin Alumni Research Foundation, priority 2007, dated 2011).
